# Reference: US10030016B2 (Sunesis Pharmaceuticals, Inc., priority 2009, dated 2018)
# Tests used:
# PDK1 = PDK1 (Homo sapiens (Human), UniProt O15530); assay: PDK1 kinase assay (coupled PDK1/AKT/FAM-crosstide assay, IMAP fluorescence polarization); type: biochemical; details: inhibition of PDK1 in vitro
# Method in brief: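 Coupled cascade: 0.75 nM PDK1 (51-359) → 10 nM AKT2 (140-467-PIFtide) → 100 nM FAM-crosstide. ATP 40 μM, 25° C, 30 min. IMAP FP (ex 485/em 530), 2 h binding. ΔmP vs conc, 4-param fit.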
# [1] = system: phospho-akt (Thr308) in PC-3 cells; assay: Inhibition of phospho-akt (Thr308) in PC-3 cells, MSD phospho-akt 308 ELISA kit; type: cell-based; details: Homo sapiens; inhibition of P308 Akt in PC-3 cells using MSD, 2 hours, no serum; read-out: EC50
# Method in brief: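 Read-out is MSD electrochemiluminescence of Akt phosphorylated at Thr308 in lysates of PC-3 cells treated 2 h with compound in serum-free medium. Wortmannin at 5 μM defined the low control and DMSO the high control.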
# Sequence of PDK1 (O15530 51-359): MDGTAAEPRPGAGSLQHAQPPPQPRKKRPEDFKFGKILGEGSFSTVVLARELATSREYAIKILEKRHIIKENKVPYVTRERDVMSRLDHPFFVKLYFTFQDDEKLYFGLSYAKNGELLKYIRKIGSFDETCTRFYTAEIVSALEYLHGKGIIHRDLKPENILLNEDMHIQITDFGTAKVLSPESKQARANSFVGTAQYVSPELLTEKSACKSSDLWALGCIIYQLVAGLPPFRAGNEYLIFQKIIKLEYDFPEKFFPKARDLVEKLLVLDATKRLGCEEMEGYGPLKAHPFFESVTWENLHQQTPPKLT
Structure (SMILES),IC50 (PDK1) [nM],EC50 [1] [nM]
"Cc1cnc2c3cc(-c4ccc(CNc5ncccc5C(=O)N[C@@H](C)c5ccc(F)c(F)c5)s4)ccc3ncn12 [Example 49, (S)-N-(1-(3,4-difluorophenyl)ethyl)-2-((5-(3-methyl-imidazo[1,2-c]quinazolin-9-yl)thiophen-2-ylmethyl)amino) nicotinamide]",< 100,> 10000
"NC(=O)c1cc(CNc2ncccc2C(=O)NCc2ccc(F)c(F)c2)ccc1-n1ccnc1 [Example 50, 2-(3-carbamoyl-4-(1H-imidazol-1-yl)benzylamino)-N-(3,4-difluorobenzyl)nicotinamide]",> 5000,> 10000
"C[C@H](NC(=O)c1cccnc1Nc1ccc(-c2ccc3ncnc(N)c3c2)s1)c1ccc(F)c(F)c1 [Example 51, (S)-2-(5-(4-aminoquinazolin-6-yl)thiophen-2-ylamino)-N-(1-(3,4-difluorophenyl)ethyl)nicotinamide]",> 5000,> 10000
"CNc1n[nH]c2ncc(-c3ccc(CNc4ncc(C#N)nc4C(=O)N[C@@H](C)c4ccc(F)c(F)c4)cc3)cc12 [Example 52, (S)-6-cyano-N-(1-(3,4-difluorophenyl)ethyl)-3-(4-(3-(methylamino)-1H-pyrazolo[3,4-b]pyridin-5-yl)benzylamino)pyrazine-2-carboxamide]",< 100,< 1000
"CC(C)Oc1cc(CNc2ncccc2C(=O)NCc2ccc(F)c(F)c2)cc(-c2c[nH]c3ncc(-c4ccn[nH]4)cc23)c1 [Example 53, 2-(3-(5-(1H-pyrazol-5-yl)-1H-pyrrolo[2,3-b]pyridin-3-yl)-5-isopropoxybenzylamino)-N-(3,4-difluorobenzyl)nicotinamide]",< 100,1000 to 10000
"O=C(NCc1ccc(F)c(F)c1)c1cccnc1NCc1cc(-c2c[nH]c3ncc(-c4ccn[nH]4)cc23)ccn1 [Example 54, 2-((4-(5-(1H-pyrazol-5-yl)-1H-pyrrolo[2,3-b]pyridin-3-yl)pyridin-2-yl)methylamino)-N-(3,4-difluorobenzyl)nicotinamide]",< 100,< 1000
"CN(C)CCCn1cc(-c2ccc(CNc3ncc(C(F)(F)F)cc3C(=O)NCc3ccc(F)c(F)c3)cc2)c2c(N)ncnc21 [Example 55, 2-(4-(4-amino-7-(3-(dimethylamino)propyl)-7H-pyrrolo[2,3-d]pyrimidin-5-yl)benzylamino)-N-(3,4-difluorobenzyl)-5-(trifluoromethyl)nicotinamide]",< 100,< 1000
"Cn1cc(-c2ccc(CNc3ncc(C(F)(F)F)cc3C(=O)Nc3ccc(F)cc3)cn2)c2c(N)ncnc21 [Example 56, 2-(((6-(4-amino-7-methyl-7H-pyrrolo[2,3-d]pyrimidin-5-yl)pyridin-3-yl)methyl)amino)-N-(4-fluorophenyl)-5-(trifluoromethyl)nicotinamide]",< 100,< 1000
"Nc1n[nH]c2ncc(-c3ccc(CNc4ncc(C(F)(F)F)cc4C(=O)Nc4ccc(F)cc4)cn3)cc12 [Example 57, 2-(((6-(3-amino-1H-pyrazolo[3,4-b]pyridin-5-yl)pyridin-3-yl)methyl)amino)-N-(4-fluorophenyl)-5-(trifluoromethyl)nicotinamide]",< 100,< 1000
"C[C@H](NC(=O)c1nc(C#N)cnc1NCc1ccc(-c2cnc3[nH]nc(N)c3c2)nc1)c1ccc(F)c(F)c1 [Example 58, (S)-3-(((6-(3-amino-1H-pyrazolo[3,4-b]pyridin-5-yl)pyridin-3-yl)methyl)amino)-6-cyano-N-(1-(3,4-difluorophenyl)ethyl) pyrazine-2-carboxamide]",< 100,< 1000
"Nc1n[nH]c2ncc(-c3ccc(CNc4ncc(C(F)(F)F)cc4C(=O)Nc4ccc(F)cn4)cc3)cc12 [Example 59, 2-(4-(3-amino-1H-pyrazolo[3,4-b]pyridin-5-yl)benzylamino)-N-(5-fluoropyridin-2-yl)-5-(trifluoromethyl)nicotinamide]",< 100,< 1000
"C[C@H](NC(=O)c1nc(C#N)cnc1NCC1CCC(c2cnc3[nH]nc(N)c3c2)CC1)c1ccc(F)c(F)c1 (stereo partly drawn) [Example 60, (S)-3-((4-(3-amino-1H-pyrazolo[3,4-b]pyridin-5-yl)cyclohexyl)methylamino)-6-cyano-N-(1-(3,4-difluorophenyl)ethyl)pyrazine-2-carboxamide]",< 100,< 1000
"C[C@H](NC(=O)c1cc(C#N)cnc1NCC1CCN(c2cnc(N)cn2)CC1)c1ccc(F)cc1 [Example 61, (S)-2-(((1-(5-aminopyrazin-2-yl)piperidin-4-yl)methyl)amino)-5-cyano-N-(1-(4-fluorophenyl)ethyl)nicotinamide]",1000 to 5000,> 10000
"C[C@H](NC(=O)c1nc(C#N)cnc1NCc1ccc(-c2cnc3[nH]nc(N(C)C)c3c2)cc1)c1ccc(F)c(F)c1 [Example 62, (S)-6-cyano-N-(1-(3,4-difluorophenyl)ethyl)-3-(4-(3-(dimethylamino)-1H-pyrazolo[3,4-b]pyridin-5-yl)benzylamino)pyrazine-2-carboxamide]",< 100,< 1000
"C[C@H](NC(=O)c1cc(C#N)cnc1NCc1cnc(-c2cnc3[nH]ncc3c2)cn1)c1ccc(F)cc1 [Example 63, 5-Cyano-N-[(S)-1-(4-fluoro-phenyl)-ethyl]-2-{[5-(1H-pyrazolo[3,4-b]pyridin-5-yl)-pyrazin-2-ylmethyl]-amino}-nicotinamide]",< 100,> 10000
"C[C@H](NC(=O)c1cc(C#N)cnc1NCc1ncc(-c2cnc3[nH]ncc3c2)cn1)c1ccc(F)cc1 [Example 64, 5-Cyano-N-[(S)-1-(4-fluoro-phenyl)-ethyl]-2-{[5-(1H-pyrazolo[3,4-b]pyridin-5-yl)-pyrimidin-2-ylmethyl]-amino}-nicotinamide]",> 5000,> 10000
"C[C@H](NC(=O)c1cc(C#N)cnc1NCc1ccc(-c2cnc3[nH]ncc3c2)nc1)c1ccc(F)cc1 [Example 65, 5-Cyano-N-[(S)-1-(4-fluoro-phenyl)-ethyl]-2-{[6-(1H-pyrazolo[3,4-b]pyridin-5-yl)-pyridin-3-ylmethyl]-amino}-nicotinamide]",< 100,< 1000
"C[C@H](NC(=O)c1cc(C#N)cnc1NCc1ccc(-c2cnc3[nH]nc(N)c3c2)nc1)c1ccc(F)cc1 [Example 66, 2-{[6-(3-Amino-1H-pyrazolo[3,4-b]pyridin-5-yl)-pyridin-3-ylmethyl]-amino}-5-cyano-N-[(S)-1-(4-fluoro-phenyl)-ethyl]-nicotinamide]",< 100,< 1000
"C[C@H](NC(=O)c1cc(C#N)cnc1NCc1cnc(-c2cnc3[nH]ncc3c2)s1)c1ccc(F)cc1 [Example 67, 5-Cyano-N-[(S)-1-(4-fluoro-phenyl)-ethyl]-2-{[2-(1H-pyrazolo[3,4-b]pyridin-5-yl)-thiazol-5-ylmethyl]-amino}-nicotinamide]",< 100,1000 to 10000
"C[C@H](NC(=O)c1cc(C#N)cnc1NCc1ccc(-c2ccc(N)nc2)nc1)c1ccc(F)cc1 [Example 68, 2-[(6′-Amino-[2,3′]bipyridinyl-5-ylmethyl)-amino]-5-cyano-N-[(S)-1-(4-fluoro-phenyl)-ethyl]-nicotinamide]",< 100,1000 to 10000
